Assay results: ChEMBL document CHEMBL3994622, “Design and synthesis of new RAF kinase-inhibiting antiproliferative quinoline derivatives. Part 2: Diarylurea derivatives” (Eur J Med Chem, 2017)

Experiments:
Type in all cases: functional
OVCAR-3 = assay: Growth inhibition of human OVCAR3 cells incubated for 48 hrs by sulforhodamine B assay; conditions: OVCAR-3, 48 h
UACC-62 = assay: Growth inhibition of human UACC62 cells incubated for 48 hrs by sulforhodamine B assay; conditions: UACC-62, 48 h
KM12 = assay: Growth inhibition of human KM12 cells incubated for 48 hrs by sulforhodamine B assay; conditions: KM12, 48 h
MOLT-4 = assay: Growth inhibition of human MOLT4 cells incubated for 48 hrs by sulforhodamine B assay; conditions: MOLT-4, 48 h
HCT-116 = assay: Growth inhibition of human HCT116 cells incubated for 48 hrs by sulforhodamine B assay; conditions: HCT-116, 48 h
NCI-H322M = assay: Growth inhibition of human NCI-H322M cells incubated for 48 hrs by sulforhodamine B assay
SK-MEL-2 = assay: Growth inhibition of human SK-MEL-2 cells incubated for 48 hrs by sulforhodamine B assay; conditions: SK-MEL-2, 48 h
SW-620 = assay: Growth inhibition of human SW620 cells incubated for 48 hrs by sulforhodamine B assay; conditions: SW-620, 48 h
PC-3 = assay: Growth inhibition of human PC3 cells incubated for 48 hrs by sulforhodamine B assay; conditions: PC-3, 48 h
UACC-257 = assay: Growth inhibition of human UACC257 cells incubated for 48 hrs by sulforhodamine B assay; conditions: UACC-257, 48 h
HCT-15 = assay: Growth inhibition of human HCT15 cells incubated for 48 hrs by sulforhodamine B assay; conditions: HCT-15, 48 h
BT-549 = assay: Growth inhibition of human BT549 cells incubated for 48 hrs by sulforhodamine B assay; conditions: BT-549, 48 h
MDA-MB-435 = assay: Growth inhibition of human MDA-MB-435 cells incubated for 48 hrs by sulforhodamine B assay; conditions: MDA-MB-435, 48 h
NCI-H226 = assay: Growth inhibition of human NCI-H226 cells incubated for 48 hrs by sulforhodamine B assay; conditions: NCI-H226, 48 h
ACHN = assay: Growth inhibition of human ACHN cells incubated for 48 hrs by sulforhodamine B assay
TK-10 = assay: Growth inhibition of human TK10 cells incubated for 48 hrs by sulforhodamine B assay; conditions: TK-10, 48 h
IGROV-1 = assay: Growth inhibition of human IGROV1 cells incubated for 48 hrs by sulforhodamine B assay; conditions: IGROV-1, 48 h
SF-268 = assay: Growth inhibition of human SF268 cells incubated for 48 hrs by sulforhodamine B assay; conditions: SF-268, 48 h
Malme-3M = assay: Growth inhibition of human MALME-3M cells incubated for 48 hrs by sulforhodamine B assay
EKVX = assay: Growth inhibition of human EKVX cells incubated for 48 hrs by sulforhodamine B assay
A498 = assay: Growth inhibition of human A498 cells incubated for 48 hrs by sulforhodamine B assay; conditions: A498, 48 h
RPMI-8226 = assay: Growth inhibition of human RPMI8226 cells incubated for 48 hrs by sulforhodamine B assay; conditions: RPMI-8226, 48 h
OVCAR-8 = assay: Growth inhibition of human OVCAR8 cells incubated for 48 hrs by sulforhodamine B assay; conditions: OVCAR-8, 48 h
SF-295 = assay: Growth inhibition of human SF295 cells incubated for 48 hrs by sulforhodamine B assay; conditions: SF-295, 48 h
A549 = assay: Growth inhibition of human A549/ATCC cells incubated for 48 hrs by sulforhodamine B assay; conditions: A549, 48 h
SNB-75 = assay: Growth inhibition of human SNB75 cells incubated for 48 hrs by sulforhodamine B assay; conditions: SNB-75, 48 h
OVCAR-4 = assay: Growth inhibition of human OVCAR4 cells incubated for 48 hrs by sulforhodamine B assay; conditions: OVCAR-4, 48 h
UO-31 = assay: Growth inhibition of human UO31 cells incubated for 48 hrs by sulforhodamine B assay; conditions: UO-31, 48 h
SR = assay: Growth inhibition of human SR cells incubated for 48 hrs by sulforhodamine B assay
LOX IMVI = assay: Growth inhibition of human LOXIMVI cells incubated for 48 hrs by sulforhodamine B assay
T47D = assay: Growth inhibition of human T47D cells incubated for 48 hrs by sulforhodamine B assay
U-251 = assay: Growth inhibition of human U251 cells incubated for 48 hrs by sulforhodamine B assay; conditions: U-251, 48 h
SNB-19 = assay: Growth inhibition of human SNB19 cells incubated for 48 hrs by sulforhodamine B assay; conditions: SNB-19, 48 h
SN12C = assay: Growth inhibition of human SN12C cells incubated for 48 hrs by sulforhodamine B assay
786-0 = assay: Growth inhibition of human 786-0 cells incubated for 48 hrs by sulforhodamine B assay; conditions: 786-0, 48 h
CCRF-CEM = assay: Growth inhibition of human CCRF-CEM cells incubated for 48 hrs by sulforhodamine B assay
OVCAR-5 = assay: Growth inhibition of human OVCAR5 cells incubated for 48 hrs by sulforhodamine B assay; conditions: OVCAR-5, 48 h
DU-145 = assay: Growth inhibition of human DU145 cells incubated for 48 hrs by sulforhodamine B assay; conditions: DU-145, 48 h
MDA-MB-231 = assay: Growth inhibition of human MDA-MB-231 cells incubated for 48 hrs by sulforhodamine B assay; conditions: MDA-MB-231, 48 h
CAKI-1 = assay: Growth inhibition of human Caki1 cells incubated for 48 hrs by sulforhodamine B assay; conditions: CAKI-1, 48 h
HL-60(TB) = assay: Growth inhibition of human HL-60(TB) cells incubated for 48 hrs by sulforhodamine B assay; conditions: HL-60, 48 h
HT-29 = assay: Growth inhibition of human HT-29 cells incubated for 48 hrs by sulforhodamine B assay; conditions: HT-29, 48 h
NCI-H522 = assay: Growth inhibition of human NCI-H522 cells incubated for 48 hrs by sulforhodamine B assay; conditions: NCI-H522, 48 h
NCI-H460 = assay: Growth inhibition of human NCI-H460 cells incubated for 48 hrs by sulforhodamine B assay; conditions: NCI-H460, 48 h
RXF 393 = assay: Growth inhibition of human RXF393 cells incubated for 48 hrs by sulforhodamine B assay; conditions: RXF 393, 48 h
HOP-62 = assay: Growth inhibition of human HOP62 cells incubated for 48 hrs by sulforhodamine B assay; conditions: HOP-62, 48 h
NCI-H23 = assay: Growth inhibition of human NCI-H23 cells incubated for 48 hrs by sulforhodamine B assay; conditions: NCI-H23, 48 h
SK-MEL-28 = assay: Growth inhibition of human SK-MEL-28 cells incubated for 48 hrs by sulforhodamine B assay; conditions: SK-MEL-28, 48 h
SK-OV-3 = assay: Growth inhibition of human SKOV3 cells incubated for 48 hrs by sulforhodamine B assay; conditions: SK-OV-3, 48 h
M14 = assay: Growth inhibition of human M14 cells incubated for 48 hrs by sulforhodamine B assay; conditions: M14, 48 h
SF-539 = assay: Growth inhibition of human SF539 cells incubated for 48 hrs by sulforhodamine B assay; conditions: SF-539, 48 h
SK-MEL-5 = assay: Growth inhibition of human SK-MEL-5 cells incubated for 48 hrs by sulforhodamine B assay; conditions: SK-MEL-5, 48 h
Hs-578T = assay: Growth inhibition of human Hs 578T cells incubated for 48 hrs by sulforhodamine B assay
MDA-MB-468 = assay: Growth inhibition of human MDA-MB-468 cells incubated for 48 hrs by sulforhodamine B assay; conditions: MDA-MB-468, 48 h
COLO 205 = assay: Growth inhibition of human COLO205 cells incubated for 48 hrs by sulforhodamine B assay; conditions: COLO 205, 48 h

SMILES: CNC(=O)c1cc(Oc2ccc(NC(=O)Nc3ccc(Cl)c(C(F)(F)F)c3)cc2)ccn1 [SORAFENIB]
- TGI (OVCAR-3): 3.98 µM
- TGI (UACC-62): 2510 nM
- TGI (KM12): 2510 nM
- TGI (MOLT-4): 100 µM
- TGI (HCT-116): 2510 nM
- TGI (NCI-H322M): 5.01 µM
- GI50 (SK-MEL-2): 2000 nM
- TGI (SK-MEL-2): 6.31 µM
- TGI (SW-620): 5.01 µM
- GI50 (PC-3): 2000 nM
- TGI (PC-3): 5.01 µM
- GI50 (UACC-257): 2000 nM
- TGI (HCT-15): 3.16 µM
- TGI (BT-549): 3.98 µM
- TGI (MDA-MB-435): 5.01 µM
- GI50 (NCI-H226): 2000 nM
- TGI (NCI-H226): 3.16 µM
- TGI (ACHN): 10 µM
- TGI (TK-10): 10 µM
- TGI (IGROV-1): 10 µM
- TGI (SF-268): 3.98 µM
- GI50 (Malme-3M): 2000 nM
- TGI (Malme-3M): 39.8 µM
- TGI (EKVX): 19.9 µM
- TGI (A498): 3.16 µM
- TGI (RPMI-8226): 3.16 µM
- GI50 (OVCAR-8): 3.16 µM
- TGI (OVCAR-8): 12.6 µM
- TGI (SF-295): 6.31 µM
- TGI (A549): 7.94 µM
- TGI (SNB-75): 3.98 µM
- TGI (OVCAR-4): 25.1 µM
- TGI (UO-31): 6.31 µM
- TGI (SR): 63.1 µM
- TGI (LOX IMVI): 2510 nM
- TGI (T47D): 5.01 µM
- GI50 (U-251): 2000 nM
- TGI (U-251): 3.16 µM
- TGI (SNB-19): 3.98 µM
- TGI (SN12C): 3.16 µM
- TGI (786-0): 5.01 µM
- GI50 (CCRF-CEM): 2000 nM
- TGI (CCRF-CEM): 5.01 µM
- TGI (OVCAR-5): 6.31 µM
- TGI (DU-145): 7.94 µM
- TGI (MDA-MB-231): 3.16 µM
- TGI (CAKI-1): 12.6 µM
- TGI (HL-60(TB)): 100 µM
- GI50 (HT-29): 2000 nM
- TGI (HT-29): 5.01 µM
- GI50 (NCI-H522): 2000 nM
- TGI (NCI-H522): 5.01 µM
- TGI (NCI-H460): 5.01 µM
- TGI (RXF 393): 5.01 µM
- GI50 (HOP-62): 2000 nM
- TGI (HOP-62): 3.16 µM
- GI50 (NCI-H23): 2000 nM
- TGI (SK-MEL-28): 2510 nM
- TGI (SK-OV-3): 5.01 µM
- GI50 (M14): 2000 nM
- TGI (M14): 3.16 µM
- TGI (SF-539): 2510 nM
- TGI (SK-MEL-5): 2510 nM
- TGI (Hs-578T): 3.98 µM
- GI50 (MDA-MB-468): 2000 nM
- TGI (MDA-MB-468): 5.01 µM
- GI50 (COLO 205): 2000 nM
- TGI (COLO 205): 3.16 µM
